Assay results from PubChem BioAssay AID328 (DTP/NCI, 2004).
Several values for one entry are separate records, joined by “and”; a condition that tells them apart may be missing. Equal entries are not always repeated. Toxic doses and inconclusive results are not listed.

Test system: BDF1 mice, P388 leukemia ip, median survival T/C
Assay: NCI In Vivo Anticancer Drug Screen. Data for tumor model P388 Leukemia (intraperitoneal) in B6D2F1 (BDF1) mice
Conditions: endpoint: median survival time, higher = longer survival
In short: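 Steps: implant the tumour, treat one group with compound and another with vehicle, record survival, then divide treated by control.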

[1] = dose: 50.0 mg/kg/injection, schedule: Q04DX003 (ip), vehicle: water
[2] = dose: 25.0 mg/kg/injection, schedule: Q01DX009 (ip), vehicle: saline
[3] = dose: 25.0 mg/kg/injection, schedule: Q04DX003 (ip), vehicle: saline
[4] = dose: 50.0 mg/kg/injection, schedule: Q04DX003 (ip), vehicle: saline
[5] = dose: 100.0 mg/kg/injection, schedule: Q04DX003 (ip), vehicle: saline
[6] = dose: 100.0 mg/kg/injection, schedule: Q01DX009 (ip), vehicle: saline with Tween-80
[7] = dose: 200.0 mg/kg/injection, schedule: Q01DX009 (ip), vehicle: saline with Tween-80
[8] = dose: 50.0 mg/kg/injection, schedule: Q01DX009 (ip), vehicle: saline with Tween-80
[9] = dose: 100.0 mg/kg/injection, schedule: Q04DX003 (ip), vehicle: saline with Tween-80
[10] = dose: 200.0 mg/kg/injection, schedule: Q04DX003 (ip), vehicle: saline with Tween-80
[11] = dose: 400.0 mg/kg/injection, schedule: Q04DX003 (ip), vehicle: saline with Tween-80
[12] = dose: 100.0 mg/kg/injection, schedule: Q04DX003 (ip), vehicle: Klucel (hydroxypropylcellulose) (HPC)
[13] = dose: 200.0 mg/kg/injection, schedule: Q04DX003 (ip), vehicle: Klucel (hydroxypropylcellulose) (HPC)
[14] = dose: 400.0 mg/kg/injection, schedule: Q04DX003 (ip), vehicle: Klucel (hydroxypropylcellulose) (HPC)
[15] = dose: 50.0 mg/kg/injection, schedule: Q01DX009 (ip), vehicle: saline
[16] = dose: 100.0 mg/kg/injection, schedule: Q01DX009 (ip), vehicle: Klucel (hydroxypropylcellulose) (HPC)
[17] = dose: 200.0 mg/kg/injection, schedule: Q01DX009 (ip), vehicle: Klucel (hydroxypropylcellulose) (HPC)

`O=C1/C(=N/O)Cc2ccccc21` was tested, and the T/C (dose: 0.1 mg/kg/injection, schedule: Q01DX009 (ip), vehicle: water) was 101 % of control, the T/C (dose: 0.2 mg/kg/injection, schedule: Q01DX009 (ip), vehicle: water) was 103 % of control and 108 % of control and the T/C (dose: 0.8 mg/kg/injection, schedule: Q01DX009 (ip), vehicle: water) was 106 % of control. For the same molecule, the T/C (dose: 1.2 mg/kg/injection, schedule: Q01DX009 (ip), vehicle: water) was 108 % of control, the T/C (dose: 2.4 mg/kg/injection, schedule: Q01DX009 (ip), vehicle: water) was 96 % of control and the T/C (dose: 3.12 mg/kg/injection, schedule: Q04DX003 (ip), vehicle: water) was 106 % of control. The T/C (dose: 6.25 mg/kg/injection, schedule: Q04DX003 (ip), vehicle: water) was 97 % of control, the T/C (dose: 12.5 mg/kg/injection, schedule: Q04DX003 (ip), vehicle: water) was 115 % of control and the T/C (dose: 25.0 mg/kg/injection, schedule: Q04DX003 (ip), vehicle: water) was 104 % of control. The T/C [1] was 106 % of control.

For `CC(=O)[O][Hg][c]1c(C)c(C)c(C)c(C)c1C`, the T/C (dose: 3.12 mg/kg/injection, schedule: Q01DX009 (ip), vehicle: Klucel (hydroxypropylcellulose) (HPC)) was 98 % of control, the T/C (dose: 6.25 mg/kg/injection, schedule: Q01DX009 (ip), vehicle: Klucel (hydroxypropylcellulose) (HPC)) was 109 % of control and the T/C (dose: 12.5 mg/kg/injection, schedule: Q01DX009 (ip), vehicle: Klucel (hydroxypropylcellulose) (HPC)) was 90 % of control and 107 % of control.

For `CC1CN1P(=O)(N1CCCC1)N1CC1C` (stereo unspecified), the T/C (dose: 12.5 mg/kg/injection, schedule: Q04DX003 (ip), vehicle: saline) was 102 % of control, the T/C [2] was 156 % of control and the T/C [3] was 105 % of control. For the same molecule, the T/C (dose: 32.0 mg/kg/injection, schedule: Q01DX009 (ip), vehicle: saline) was 155 % of control, the T/C (dose: 37.5 mg/kg/injection, schedule: Q01DX009 (ip), vehicle: saline) was 173 % of control and the T/C [4] was 169 % of control. For the same molecule, the T/C (dose: 64.0 mg/kg/injection, schedule: Q01DX009 (ip), vehicle: saline) was 87 % of control and the T/C [5] was 179 % of control.

For `COc1cccc2c(=O)cc(C)[nH]c12`, the T/C (dose: 25.0 mg/kg/injection, schedule: Q01DX009 (ip), vehicle: water) was 107 % of control, the T/C (dose: 50.0 mg/kg/injection, schedule: Q01DX009 (ip), vehicle: water) was 92 % of control and the T/C [1] was 103 % of control. For the same molecule, the T/C (dose: 100.0 mg/kg/injection, schedule: Q01DX009 (ip), vehicle: water) was 101 % of control, the T/C (dose: 100.0 mg/kg/injection, schedule: Q04DX003 (ip), vehicle: water) was 97 % of control and the T/C (dose: 200.0 mg/kg/injection, schedule: Q01DX009 (ip), vehicle: water) was 91 % of control. For the same molecule, the T/C (dose: 200.0 mg/kg/injection, schedule: Q04DX003 (ip), vehicle: water) was 106 % of control, the T/C (dose: 400.0 mg/kg/injection, schedule: Q01DX009 (ip), vehicle: water) was 90 % of control and the T/C (dose: 400.0 mg/kg/injection, schedule: Q04DX003 (ip), vehicle: water) was 98 % of control.

With `CCOC(=O)CC(=O)c1ccc(C)cc1` the T/C [6] was 90 % of control and the T/C [7] was 90 % of control.

In the case of `CCN(CC)C(=S)S`, the T/C (dose: 100.0 mg/kg/injection, schedule: Q01DX009 (ip), vehicle: saline sonified) is reported as 104 % of control, the T/C (dose: 200.0 mg/kg/injection, schedule: Q01DX009 (ip), vehicle: saline sonified) is reported as 100 % of control and the T/C (dose: 400.0 mg/kg/injection, schedule: Q01DX009 (ip), vehicle: saline sonified) is reported as 118 % of control. The T/C (dose: 400.0 mg/kg/injection, schedule: Q01DX010 (ip), vehicle: water) was 100 % of control.

For `CC(=O)OC1(C)CC(C)C(O)C(C(O)CC2CC(=O)NC(=O)C2)C1` (stereo unspecified), the T/C (dose: 0.5 mg/kg/injection, schedule: Q01DX010 (ip), vehicle: water) was 120 % of control, the T/C (dose: 2.0 mg/kg/injection, schedule: Q01DX010 (ip), vehicle: water) was 150 % of control and 160 % of control and the T/C (dose: 3.0 mg/kg/injection, schedule: Q01DX010 (ip), vehicle: water) was 190 % of control. The T/C (dose: 4.0 mg/kg/injection, schedule: Q01DX010 (ip), vehicle: water) was 90 % of control and 110 % of control.

For `COc1ccc2c(c[n+](C)c3c4cc5c(cc4ccc23)OCO5)c1OC`, the T/C (dose: 5.0 mg/kg/injection, schedule: Q01DX010 (ip), vehicle: saline) was 90 % of control and the T/C (dose: 10.0 mg/kg/injection, schedule: Q01DX010 (ip), vehicle: saline) was 100 % of control.

In the case of `O=C(Nc1cccc(Cl)c1)NN(c1ccccc1)C1CCS(=O)(=O)C1` (stereo unspecified), the T/C [8] is reported as 99 % of control, the T/C [6] is reported as 98 % of control and the T/C [7] is reported as 100 % of control.

In the case of `Ic1ccccc1C[N+]12CN3CN(CN(C3)C1)C2`, the T/C [8] is reported as 108 % of control, the T/C (dose: 60.0 mg/kg/injection, schedule: Q01DX009 (ip), vehicle: alcohol) is reported as 95 % of control and the T/C (dose: 85.0 mg/kg/injection, schedule: Q01DX009 (ip), vehicle: alcohol) is reported as 95 % of control. The T/C [6] was 120 % of control, the T/C (dose: 100.0 mg/kg/injection, schedule: Q01DX009 (ip), vehicle: saline) was 115 % of control and the T/C [9] was 110 % of control. The T/C [5] was 118 % of control, the T/C (dose: 132.0 mg/kg/injection, schedule: Q01DX009 (ip), vehicle: saline with Tween-80) was 111 % of control and the T/C [10] was 110 % of control. The T/C (dose: 200.0 mg/kg/injection, schedule: Q04DX003 (ip), vehicle: saline) was 113 % of control, the T/C (dose: 300.0 mg/kg/injection, schedule: Q01DX009 (ip), vehicle: saline with Tween-80) was 100 % of control and 123 % of control and the T/C [11] was 95 % of control. For the same molecule, the T/C (dose: 400.0 mg/kg/injection, schedule: Q04DX003 (ip), vehicle: saline) was 113 % of control.

`O=C(/C=C/c1ccc(OCc2ccccc2)cc1)c1ccccc1F` was tested, and the T/C [8] was 96 % of control, the T/C [6] was 100 % of control and the T/C [7] was 96 % of control.

For `Nc1ccccc1/C=C(\C(=O)O)c1cccc(Cl)c1`, the T/C [12] was 95 % of control, the T/C [13] was 104 % of control and the T/C [14] was 100 % of control.

With `Oc1ccc2ccccc2c1N=Nc1ccc(Cl)cc1` the T/C [6] was 104 % of control, the T/C [7] was 95 % of control and the T/C (dose: 400.0 mg/kg/injection, schedule: Q01DX009 (ip), vehicle: saline with Tween-80) was 95 % of control.

`CN(C)c1ccc(-c2nc3ccccn3c2N)cc1` was tested, and the T/C (dose: 1.56 mg/kg/injection, schedule: Q01DX009 (ip), vehicle: saline) was 105 % of control, the T/C (dose: 3.13 mg/kg/injection, schedule: Q01DX009 (ip), vehicle: saline) was 96 % of control and the T/C (dose: 6.25 mg/kg/injection, schedule: Q01DX009 (ip), vehicle: saline) was 113 % of control.

In the case of `C1CC[N-]CC1.C1CC[N-]CC1.C1CC[N-]CC1.[Cl][Rh]([Cl])[Cl]`, the T/C (dose: 12.5 mg/kg/injection, schedule: Q01DX009 (ip), vehicle: saline) is reported as 156 % of control, the T/C [2] is reported as 157 % of control and the T/C [15] is reported as 161 % of control and 175 % of control.

In the case of `O=NN(CCF)C(=O)NC1CCC(NC(=O)N(CCF)N=O)CC1` (stereo unspecified), the T/C (dose: 16.5 mg/kg/injection, schedule: Q04DX003 (ip), vehicle: saline with Tween-80) is reported as 186 % of control, the T/C (dose: 33.0 mg/kg/injection, schedule: Q04DX003 (ip), vehicle: saline with Tween-80) is reported as 272 % of control and the T/C (dose: 66.0 mg/kg/injection, schedule: Q04DX003 (ip), vehicle: saline with Tween-80) is reported as 272 % of control. For the same molecule, the T/C [9] was 272 % of control, the T/C (dose: 132.0 mg/kg/injection, schedule: Q04DX003 (ip), vehicle: alcohol) was 272 % of control and the T/C [10] was 200 % of control.

With `CCOC(=O)C1NC(=S)NCC1=O` (stereo unspecified) the T/C [16] was 110 % of control and the T/C [17] was 110 % of control.

In the case of `CCOCc1cccc2ccccc12`, the T/C [9] is reported as 109 % of control, the T/C [10] is reported as 100 % of control and the T/C [11] is reported as 118 % of control.

For `CCN(CC)CCOC(=O)c1ccccc1Nc1cccc(C)c1`, the T/C [2] was 104 % of control, the T/C [3] was 109 % of control and the T/C [15] was 108 % of control. For the same molecule, the T/C [4] was 100 % of control, the T/C (dose: 87.0 mg/kg/injection, schedule: Q04DX003 (ip), vehicle: saline) was 119 % of control and the T/C [5] was 109 % of control. For the same molecule, the T/C (dose: 175.0 mg/kg/injection, schedule: Q04DX003 (ip), vehicle: saline) was 107 % of control.

For `BrC1C2CCC(CC2)C1Br` (stereo unspecified), the T/C [16] was 100 % of control, the T/C [12] was 95 % of control and the T/C [17] was 104 % of control. For the same molecule, the T/C [13] was 95 % of control and the T/C [14] was 91 % of control.
